Test results reported in US4968691A (priority 1986, dated 1990).
Like-named read-outs stand apart in the source and are kept apart here.

Columns and labels:
muscarinic receptors [1] = assay type: binding, Hooded Lister rats; settings: displacement of 0.27 nM 3H-QNB; rat cerebral cortex; 37° C., 30 min; tested as oxalate salts
muscarinic receptors [2] = test: Radio ligand binding: displacement of 3H-Oxotremorine-M (muscarinic agonist) from rat cerebral cortex membranes; design: species or system Hooded Lister rats; settings: displacement of 2 nM 3H-OXO-M, 2 mM magnesium chloride, 37° C., 30 min, tested as oxalate salts
[3] = Lambrecht and Mutschler, Arzneim. forsh. 24 (11) 1725, 1974; cited from earlier work

`Cc1noc(C2CN3CCC2CC3)n1` (racemic) [E1, (±) 3-(3-Methyl-1,2,4-oxadiazol-5-yl)-1-azabicyclo [2.2.2]octane] gave an IC50 (muscarinic receptors [1]) of 1.84 µM and an IC50 (muscarinic receptors [2]) of 0.015 µM.

For `Cc1nc(C2CN3CCC2CC3)no1` (racemic) [E2, (±) 3-(5-Methyl-1,2,4-oxadiazol-3-yl)-1-azabicyclo [2.2.2]octane], the IC50 (muscarinic receptors [1]) was 17 µM and the IC50 (muscarinic receptors [2]) was 1.1 µM.

For `Cc1nnc(C2CN3CCC2CC3)o1` (racemic) [E4, (±) 3-(5-Methyl-1,3,4-oxadiazol-2-yl)-1-azabicyclo [2.2.2]octane], the IC50 (muscarinic receptors [1]) was 15 µM and the IC50 (muscarinic receptors [2]) was 1 µM.

For `c1coc(C2CN3CCC2CC3)n1` (racemic) [E5, (±) 3-(1,3-Oxazol-2-yl)-1-azabicyclo[2.2.2]octane], the IC50 (muscarinic receptors [1]) was 27 µM and the IC50 (muscarinic receptors [2]) was 0.63 µM.

In the case of `c1nnc(C2CN3CCC2CC3)o1` (racemic) [E8, (±) 3-(1,3,4-Oxadiazol-2-y.)-1-azabicyclo[2.2.2]octane], the IC50 (muscarinic receptors [1]) is reported as 63 µM and the IC50 (muscarinic receptors [2]) is reported as 2.8 µM.

In the case of `Cc1noc([C@H]2C[C@@H]3CCN(C3)C2)n1` (relative stereo) [E3, (±) exo-3-(3-Methyl-1,2,4-oxadiazol-5-yl)-1-azabicyclo [3.2.1]octane], the IC50 (muscarinic receptors [1]) is reported as 1.84 µM and the IC50 (muscarinic receptors [2]) is reported as 0.025 µM.

Molecule `Cc1noc([C@@H]2CN3CCC[C@@H]2C3)n1` (relative stereo) [E6, (±) exo-6-(3-Methyl-1,2,4-oxadiazol-5-yl)-1-azabicyclo [3.2.1]octane] has an IC50 (muscarinic receptors [1]) of 2.3 µM and an IC50 (muscarinic receptors [2]) of 0.041 µM.

In the case of `c1coc([C@H]2C[C@@H]3CCCN(C3)C2)n1` (relative stereo) [E9, (±) exo-3-(1,3-Oxazol-2-yl 1-azabicyclo[3.3.1]nonane], the IC50 (muscarinic receptors [1]) is reported as 3.1 µM and the IC50 (muscarinic receptors [2]) is reported as 0.16 µM.

Work on `Cc1noc([C@@H]2CN3CC[C@@H]2C3)n1` (relative stereo) [E10, (±) exo-3-(3-Methyl-1,2,4-oxadiazol-5-yl)-1-azabicyclo [2.2.1]heptane] yielded an IC50 (muscarinic receptors [1]) of 1.1 µM and an IC50 (muscarinic receptors [2]) of 0.0035 µM.

For `COC(=O)C1CN2CCC1CC2` (stereo not shown) [3-Methoxycarbonylquinuclidine], the cholinergic activity [3] is given as “possess cholinergic activity”.
